Earlier results as cited in patent US20060069047A1, “Antibiotic conjugates” (priority 2002, published 2006).

Columns and labels:
[1] = test system: phagocytic cells
[2] = in vivo
[3] = test system: PMN; details: intracellular/extracellular concentration, PMN incubated 1 h

cellular-to-extracellular concentration ratio (C/E) [1] | half-life (t1/2) [2] [h] | I/E ratio [3] | SMILES
 |  | 0.16 | CC1(C)SC2C(NC(=O)Cc3ccccc3)C(=O)N2C1C(=O)O (stereo not shown) [Penicillin G, 3,3-Dimethyl-7-oxo-6-phenylacetylamino-4-thia-1-aza-bicyclo[3.2.0]heptane-2-carboxylic acid]
 |  | 197 | CC[C@H]1OC(=O)[C@H](C)C(=O)[C@H](C)[C@@H](O[C@@H]2O[C@H](C)C[C@H](N(C)C)[C@H]2O)[C@](C)(OC)C[C@@H](C)C(=O)[C@H](C)[C@H]2N(CCCCn3cnc(-c4cccnc4)c3)C(=O)O[C@]12C [Telithromycin]

Further lines, the molecule ahead of its results:

SMILES | cellular-to-extracellular concentration ratio (C/E) [1] | half-life (t1/2) [2] [h] | I/E ratio [3]
CC[C@H]1OC(=O)[C@H](C)[C@@H](O[C@H]2C[C@@](C)(OC)[C@@H](O)[C@H](C)O2)[C@H](C)[C@@H](O[C@@H]2O[C@H](C)C[C@H](N(C)C)[C@H]2O)[C@](C)(O)C[C@@H](C)CN(C)[C@H](C)[C@@H](O)[C@]1(C)O [Azithromycin] | ~500 | ~68 | 517
C[C@H]1COc2c(N3CCN(C)CC3)c(F)cc3c(=O)c(C(=O)O)cn1c23 [Levofloxacin] |  |  | 4.8
COc1c(N2C[C@@H]3CCCN[C@@H]3C2)c(F)cc2c(=O)c(C(=O)O)cn(C3CC3)c12 [Moxifloxacin] |  |  | 12.0
